SMILES strings stand for the structures.

The target of one series is COX-1 (Homo sapiens, UniProt P23219). The note with it: background statement; cited from earlier work.
Sequence of COX-1 (P23219 24-599): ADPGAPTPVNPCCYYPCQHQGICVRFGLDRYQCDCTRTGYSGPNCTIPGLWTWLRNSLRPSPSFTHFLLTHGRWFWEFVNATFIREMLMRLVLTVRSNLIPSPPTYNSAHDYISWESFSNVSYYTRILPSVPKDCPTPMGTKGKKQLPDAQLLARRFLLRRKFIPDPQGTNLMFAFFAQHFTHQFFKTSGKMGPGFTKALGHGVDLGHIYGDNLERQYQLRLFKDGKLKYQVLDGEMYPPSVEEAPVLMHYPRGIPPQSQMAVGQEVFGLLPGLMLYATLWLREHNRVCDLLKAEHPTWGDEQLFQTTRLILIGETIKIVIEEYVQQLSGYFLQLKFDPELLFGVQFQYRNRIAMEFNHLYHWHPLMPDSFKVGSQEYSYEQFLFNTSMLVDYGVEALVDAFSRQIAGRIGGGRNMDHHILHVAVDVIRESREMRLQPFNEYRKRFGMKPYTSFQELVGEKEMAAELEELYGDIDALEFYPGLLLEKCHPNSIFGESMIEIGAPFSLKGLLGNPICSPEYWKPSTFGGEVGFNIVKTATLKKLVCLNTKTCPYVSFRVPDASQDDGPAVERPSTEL

For `CCC(=O)NS(=O)(=O)c1ccc(-c2c(-c3ccccc3)noc2C)cc1` [Parecoxib], the “in vitro inhibitory activity against COX-1” value on COX-1 was “weak”.
Take `CCC(=O)NS(=O)(=O)c1ccc(-n2nc(C(F)(F)F)cc2-c2ccc(C)cc2)cc1` [compound (V), N-[[4-[5-(4-methylphenyl)-3-(trifluoromethyl)-1H-pyrazol-1-yl]phenyl]-sulfonyl]propanamide]: the melting point lay in the range of 88.3 to 96.7 °C.
As for `CCC(=O)[N-]S(=O)(=O)c1ccc(-n2nc(C(F)(F)F)cc2-c2ccc(C)cc2)cc1.[Na+]` [compound Z, 4-[5-(4-methylphenyl)-3-(trifluoromethyl)-1H-pyrazol-1-yl]-N-propionylbenzenesulfonamide, sodium salt], the melting point was greater than 300 °C.
For `Cc1onc(-c2ccccc2)c1-c1ccc(S(N)(=O)=O)cc1` [valdecoxib], the “in vitro inhibitory activity against COX-1” value at COX-1 was “weak”.

The term melting point denotes the temperature of the solid-liquid transition.

The record behind these values is US20040092566A1, “Celecoxib prodrug” (priority 2002, published 2004).
